Calls of active or inactive are those of the source. The rule behind the calls is not given here.

The subject of one test is Mus musculus. Kind of test: Antifibrotic activity in C57BL/6J mouse model of bleomycin-induced idiopathic pulmonary fibrosis assessed as inhibition of changes in lung textures at 30-60 mg/kg, po dosed for 31 consecutive days followed by tracheal administration of bleomycin by masson's staining based histopathological analysis. The class given is functional, organism-based. The conditions noted are these: time 31.0 day.
In the case of `CCc1nc2c(C)cc(N3CCN(CC(=O)N4CC(O)C4)CC3)cn2c1N(C)c1nc(-c2ccc(F)cc2)c(C#N)s1`, the inhibition result was “Active”.

Regarding `CCc1nc2c(C)cc(-c3ccc(CN4CCC(O)CC4)cc3)cn2c1NC(=O)NCc1ccc(F)cc1`, the inhibition entry is “Active”.

For the next test, the system named is Mus musculus. Kind of test: Antifibrotic activity in C57BL/6 mouse model of bleomycin-induced idiopathic pulmonary fibrosis assessed as inhibition of collagen deposition at 30-60 mg/kg, po dosed for 31 consecutive days followed by tracheal administration of bleomycin by masson's staining based histopathological analysis. The class given is functional, organism-based. Particulars: time 31.0 day.
For `CCc1nc2c(C)cc(N3CCN(CC(=O)N4CC(O)C4)CC3)cn2c1N(C)c1nc(-c2ccc(F)cc2)c(C#N)s1`, the inhibition entry is “Active”.

In the case of `CCc1nc2c(C)cc(-c3ccc(CN4CCC(O)CC4)cc3)cn2c1NC(=O)NCc1ccc(F)cc1`, the inhibition result was “Active”.

Another test has as its system Mus musculus. Kind of test: Antifibrotic activity in C57BL/6 mouse model of bleomycin-induced idiopathic pulmonary fibrosis assessed as survival rate at 30-60 mg/kg, po dosed for 31 consecutive days followed by tracheal administration of bleomycin relative to control. It is filed as functional. The conditions noted are these: C57BL/6, po, 744 h, time 31 day.
`CCc1nc2c(C)cc(-c3ccc(CN4CCC(O)CC4)cc3)cn2c1NC(=O)NCc1ccc(F)cc1`: the survival at 60 mg/kg was found to be 100%.

In the next test the target is Autotaxin (Homo sapiens, UniProt Q13822). Kind of test: Inhibition of human ATX using FS-3 as substrate preincubated for 45 mins followed by substrate addition and measured every 1 min for 30 mins by fluorescence microplate reader assay.
Conditions: not given
In turn, `CCc1nc2c(C)cc(-c3ccc(C(=O)N4CCCCC4)cc3)cn2c1NC(=O)NCc1ccc(F)cc1` yielded an IC50 of 626 nM.

Molecule `CCc1nc2c(C)cc(-c3ccc(CN4CCC[C@H]4CO)cc3)cn2c1NC(=O)NCc1ccc(OC)c(Cl)c1` gave an IC50 of 497 nM.

With `CCc1nc2c(C)cc(-c3ccc(CN4CCOCC4)cc3)cn2c1NC(=O)NCc1ccc(OC)c(Cl)c1`, half-maximal inhibition (IC50) required 71.7 nM.

In turn, `COc1ccc(CNC(=O)Nc2c(C)nc3c(C)cc(-c4ccc(CN5CCN(CCO)CC5)cc4)cn23)cc1Cl` displayed an IC50 of 79.1 nM.

Consider `CCc1nc2c(C)cc(-c3ccc(CN4CCN(CCO)CC4)cc3)cn2c1NC(=O)NCc1ccc(OC)c(Cl)c1`, for which the IC50 was found to be 5.43 nM.

For the molecule `CCc1nc2c(C)cc(-c3ccc(C(=O)N4CCN(CC)CC4)cc3)cn2c1NC(=O)NCc1ccc(F)cc1`, the IC50 was greater than 1000 nM.

`CCc1nc2c(C)cc(-c3ccc(C(=O)N4CCN(C)CC4)cc3)cn2c1NC(=O)NCc1ccc(F)cc1` came in with an IC50 of 257 nM.

In turn, `CCc1nc2c(C)cc(-c3ccc(CN4CCC(O)CC4)cc3)cn2c1NC(=O)NCc1ccc(F)cc1` displayed an IC50 of 1.72 nM.

Consider `CCc1nc2c(C)cc(-c3ccc(C(=O)N4CCC(O)CC4)cc3)cn2c1NC(=O)NCc1ccc(F)cc1`, for which the IC50 was determined as 9.17 nM.

Turning to `CCc1nc2c(C)cc(-c3ccc(CN4CCN(CC)CC4)cc3)cn2c1NC(=O)NCc1ccc(Cl)cc1`, the IC50 came out at 688 nM.

In the case of `CCc1nc2c(C)cc(-c3ccc(CN4CCOCC4)cc3)cn2c1NC(=O)NCc1ccc(Cl)cc1`, the midpoint of inhibition, the IC50, lay at 283 nM.

As to `COc1ccc(CNC(=O)Nc2c(C)nc3c(C)cc(-c4ccc(CN5CCC(O)CC5)cc4)cn23)cc1Cl`, the IC50 worked out at 11 nM.

In turn, `CCc1nc2c(C)cc(-c3ccc(CN4CCCC4)cc3)cn2c1NC(=O)NCc1ccc(Cl)cc1` came in with an IC50 of 1070 nM.

Molecule `CCc1nc2c(C)cc(-c3ccc(CN4CCCCC4)cc3)cn2c1NC(=O)NCc1ccc(Cl)cc1` gave an IC50 of 647 nM.

Molecule `CCc1nc2c(C)cc(-c3ccc(CN4CCC(O)CC4)cc3)cn2c1NC(=O)NCc1ccc(OC)c(Cl)c1` displayed an IC50 of 7.41 nM.

Turning to `CCc1nc2c(C)cc(-c3ccc(CN4CCSCC4)cc3)cn2c1NC(=O)NCc1ccc(OC)c(Cl)c1`, the IC50 was greater than 1000 nM.

In turn, `CCc1nc2c(C)cc(-c3ccc(C(=O)N4CCN(C)CC4)cc3)cn2c1NC(=O)NCc1ccc(OC)c(Cl)c1` gave an IC50 of 213 nM.

Take `CCc1nc2c(C)cc(-c3ccc(CN4CCC(O)CC4)cc3)cn2c1NC(=O)NCc1ccc(Cl)cc1`: the IC50 was 237 nM.

The molecule `CCc1nc2c(C)cc(-c3ccc(CN4CCN(C)CC4)cc3)cn2c1NC(=O)NCc1ccc(F)cc1` gave an IC50 of 451 nM.

Regarding `CCc1nc2c(C)cc(-c3ccc(C(=O)N4CCC(O)CC4)cc3)cn2c1NC(=O)NCc1ccc(OC)c(Cl)c1`, the IC50 was determined as 11.7 nM.

Broadly, the IC50 is the point on the concentration scale where inhibition reaches its midpoint. Lower therefore signals greater potency.

These data come from ChEMBL document CHEMBL4808244, “Design, synthesis and anti-fibrosis evaluation of imidazo[1,2-a]pyridine derivatives as potent ATX inhibitors” (Bioorg Med Chem, 2021).
